Biological target: T1, Pif1 (Saccharomyces cerevisiae, UniProt P07271)
T1 sequence (P07271 46-859): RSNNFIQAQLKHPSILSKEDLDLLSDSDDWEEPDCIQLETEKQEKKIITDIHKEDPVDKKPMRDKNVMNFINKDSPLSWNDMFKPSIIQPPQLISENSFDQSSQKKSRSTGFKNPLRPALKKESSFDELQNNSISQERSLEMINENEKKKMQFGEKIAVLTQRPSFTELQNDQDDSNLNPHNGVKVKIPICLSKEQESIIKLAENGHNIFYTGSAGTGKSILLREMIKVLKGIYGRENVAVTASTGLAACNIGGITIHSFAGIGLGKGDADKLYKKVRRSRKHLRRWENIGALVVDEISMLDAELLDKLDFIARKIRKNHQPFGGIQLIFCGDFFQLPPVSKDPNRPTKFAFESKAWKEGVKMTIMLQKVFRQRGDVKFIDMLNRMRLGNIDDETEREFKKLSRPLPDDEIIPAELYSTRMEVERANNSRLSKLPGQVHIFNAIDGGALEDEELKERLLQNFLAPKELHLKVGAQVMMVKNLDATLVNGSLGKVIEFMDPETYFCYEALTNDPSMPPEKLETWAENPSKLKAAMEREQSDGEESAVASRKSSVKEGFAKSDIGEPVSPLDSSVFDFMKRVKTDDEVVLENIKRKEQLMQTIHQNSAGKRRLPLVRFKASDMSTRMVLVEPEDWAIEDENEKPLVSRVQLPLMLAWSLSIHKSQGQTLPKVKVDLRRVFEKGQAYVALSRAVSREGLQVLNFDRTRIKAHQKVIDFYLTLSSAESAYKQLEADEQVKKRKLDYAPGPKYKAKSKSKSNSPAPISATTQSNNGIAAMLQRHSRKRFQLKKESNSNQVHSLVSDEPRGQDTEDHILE
Experiment: stopped-flow Cy3 fluorescence, dissociation of pre-formed Pif1-dT20-Cy3 complex
Assay type: binding
Conditions: Buffer T200 (200 mM NaCl, pH 8.3, 5 mM MgCl2), 22°C; 1 mM ADP, 0.1 mg/ml heparin

For `Nc1ncnc2c1ncn2[C@@H]1O[C@H](COP(=O)(O)OP(=O)(O)O)[C@@H](O)[C@H]1O` [ADP], the “apparent rate of dissociation” value was “This is true also for ADP, the product of ATP hydrolysis (Figure 1b, green)”.

Source: publication PMC3632115 (Nucleic Acids Research, 2013)
